# Results: patent US20240165077A1, “COMPOSITIONS AND METHODS FOR TREATING NEUROLOGIC DISEASES” (Cognition Therapeutics, Inc., priority 2021, published 2024)
# Read-outs that look alike come from different tables or passages of the source.
# Experiments:
# [1] = test system: α-synuclein oligomers (α-synO) binding to neuronal synapses; experiment: Displacement of alpha-synuclein oligomers: α-synO binding to neuronal synapses (ASYO5 immunostaining); format: cell-based, Rat; conditions: 24 hours; for α-synO binding to neuronal synapses: synthetic α-synO, FIG. 1D/1E
# Method: FIG. 1A is a representative image of a neuron culture with a seeding control (7.1 nM) treated with a vehicle for 24 hours. Cultures were immunostained for the neurite marker microtubule associated protein 2 (MAP2; green) and for α-synuclein oligomers using an alpha-synuclein, oligomer-specific antibody (ASYO5 antibody, Agrisera; red). No α-synOs are present in the vehicle treated cultures.
# FIG. 1B is a representative image of a neuron culture treated with synthetic α-synuclein oligomers (1 μM) for 24 hours and immunostained for the neurite marker microtubule associated protein 2 (MAP2; green) and for α-synuclein oligomers using an alpha-synuclein, oligomer-specific antibody (ASYO5 antibody, Agrisera; red).
# FIG. 1C is a representative image of a neuron culture treated with synthetic α-synuclein oligomers (1 μM) and Compound A:
# (10 μM) for 24 hours and immunostained for the neurite marker microtubule associated protein 2 (MAP2; green) and for α-synuclein oligomers using an alpha-synuclein, oligomer-specific antibody (ASYO5 antibody, Agrisera; red).
# FIG. 1D is a graphical representation of binding affinity of α-synuclein oligomers (α-SynO) to neuronal synapses after treatment with vehicle (α-SynO) or treatment with Compound B
# FIG. 1E is a graphical representation of binding affinity of α-synuclein oligomers (α-SynO) to neuronal synapses after treatment with vehicle (α-SynO) or treatment with Compound A
# (§1) Rat neuronal cultures were treated with vehicle (an a seeding control (7.1 nM) without α-synuclein oligomers (α-synOs)) or synthetic α-synOs for 24 hours. Cultures were immunostained for the neurite marker microtubule associated protein 2 (MAP2; green) and for α-synOs using an alpha-synuclein, oligomer-specific antibody (ASYO5 antibody, Agrisera; red).
# [2] = test system: α-synO-induced vesicle trafficking deficits; experiment: Vesicle trafficking in neuronal cultures treated with α-synuclein oligomers; format: cell-based, Rat; conditions: α-synOs 1.0 μM final concentration; for Emax / EC50: Rattus norvegicus; for Emax: FIG. 1F/1G, read-out: Emax, amelioration of α-synO vesicle trafficking deficit; for EC50: read-out: EC50, amelioration of α-synO vesicle trafficking deficit
# Method: FIG. 1F is a graphical representation of vesicular trafficking in untreated control cultures, cultures treated with α-synuclein oligomers (α-SynO) for 24 hours, or cultures treated with α-synuclein oligomers (α-SynO) and Compound B
# FIG. 1G is a graphical representation of vesicular trafficking in untreated control cultures, cultures treated with α-synuclein oligomers (α-SynO) for 24 hours, or cultures treated with α-synuclein oligomers (α-SynO) and Compound A
# as §1
# Untreated vehicle control cultures without any α-SynO addition lack α-synO immunoreactivity (FIG. 1A). […] FIGS. 1D, 1E, 1F, 1G: * p<0.05, **p<0.01, […], ****p<0.001, one-way ANOVA for drug concentration vs control with Dunnett's post-test.
# [3] = test system: α-synuclein; experiment: Animal models of Parkinson's disease (AAV1/2 A53T-α-synuclein overexpression; intrastriatal α-synuclein preformed fibrils); format: in vivo, rat; conditions: both models of Parkinson's disease
# Text: Examples include models of overexpression of α-synuclein or models that mimic the propagation of α-synuclein throughout the brain. One such overexpression model is the rat AAV1/2 A53T-α-synuclein model (Koprich, J. B., Johnston, T. H., Huot, P., Reyes, M. G., Espinosa, M., Brotchie, J. M., “Progressive neurodegeneration or endogenous compensation in an animal model of Parkinson's disease produced by decreasing doses of alpha-synuclein,” PLoS One, 6:1-9 (2011), which is hereby incorporated herein by reference in its entirety), where induction of α-synuclein overexpression is accompanied by loss of nigral dopaminergic cells, lower dopamine transporter levels, lower dopamine levels and motor deficits. Another example uses intrastriatal injection of preformed fibrils of α-synuclein to model propagation of Parkinson's pathology throughout the brain (Duffy, M. F., Collier, T. J., Patterson, J. R., Kemp, C. J., Fischer D. L., Stoll, A. C., Sortwell, C. E., “Quality over quantity: Advantages of using alpha-synuclein preformed fibrils triggered synucleinopathy to model idiopathic Parkinson's disease,” Front Neurosci, 12:1-10 (2018) and Patterson, J. R., Duffy, M. F., Kemp, C. J., Howe, J. W., Collier, T. J., Stoll, A. C., Miller, K. M., Patel, P., Levine, N., Moore, D. J., Luk, K. C., Fleming, S. M., Kanaan, N. M, Paumier, K. L., El Agnaf, O. M. A., Sortwell, C. […]
EC50 ([2]; FIG. 1F),EC50 ([2]; FIG. 1G),Structure (SMILES),α-synO binding to neuronal synapses [1],Emax [2],rescue of α-synO-induced trafficking deficits [2],deficits characteristic of Parkinson's disease and their propagation throughout the brain [3],"punctate binding of α-synOs along neurites ([1]; 1 μM α-synO, compound 10 μM, FIG. 1B/1C)"
0.31 µM,–,CC(C)=C[C@@H](CC(C)(C)c1ccc(C(F)(F)F)cc1)N1CCC(C2CCOCC2)CC1 [Compound B],block α-synO binding to neuronal synapses in a concentration-dependent manner,92%,rescue α-synO-induced trafficking deficits in a concentration-dependent manner,reduces some or all deficits that are characteristic of Parkinson's disease,–
–,0.65 µM,CC(C)(C)Oc1cc(CCC(C)(C)N2Cc3ccc(S(C)(=O)=O)cc3C2)ccc1O [Compound A],block α-synO binding to neuronal synapses in a concentration-dependent manner,87%,rescue α-synO-induced trafficking deficits in a concentration-dependent manner,reduces some or all deficits that are characteristic of Parkinson's disease,punctate binding of α-synOs along neurites in the absence (FIG. 1B) but not presence
